# Measurements published in patent US20110123510A1, “Methods of Affecting Biological Function Through Circadian Clock Feedback Cycle by NAMPT-Mediated NAD+ Biosynthesis” (WASHINGTON UNIVERSITY, priority 2009, published 2011).
# Key:
# [1] = system: CLOCK:BMAL1-driven transcription of Per2:luciferase; test: Per2:luciferase transcriptional reporter assay in HEK293 cells; format: cell-based
# Protocol: Luciferase Assays. HEK293 and HepG2 cells were transiently transfected with Clock (100 ng), Bmal1 (100 ng), firefly luciferase reporter (100 ng), and renilla luciferase reporter (control for transfection efficiency) (4 ng) using Lipofectamine 2000. Increasing doses of Sirt1 (200-800 ng), resveratrol (20, 50, 100 uM), nicotinamide (1, 5, 10 mM), Ex-527 (0.1 or 1.0 uM), or FK866 (10 nM) were added as indicated. 48 hrs following transfection, cells were lysed and luciferase activity monitored using the Dual-Luciferase® Reporter Assay System (Promega). Firefly luciferase values were normalized to renilla luciferase values, and a minimum of 3 independent experiments was performed in triplicate for each assay.
# [2] = system: SIRT1 target genes; test: mRNA expression of SIRT1 target genes in primary hepatocytes (quantitative real-time PCR); format: cell-based, mice; settings: 200 nM FK866 for 24 hours (FIG. 2B)
# Protocol: (§1) Quantitative Real-Time PCR. Total RNA was extracted from frozen tissue with Tri Reagent (Molecular Research Center, Inc.). cDNA was synthesized using the High Capacity cDNA Reverse Transcription kit (Applied Biosystems). Real-time PCR was performed and analyzed using an Applied Biosystems 7900HT Fast Real-Time PCR System (Applied Biosystems). PCR conditions were: 10 min at 95° C., then 35 cycles of 10 s at 95° C., 15 s at 60° C. Relative expression levels (normalized to Gapdh) were determined using the comparative CT method.
# (§2) Primary Hepatocyte Isolation and Adenoviral Infection.
# [3] = system: Per2 RNA oscillation; test: Per2 RNA oscillation in primary hepatocytes following serum shock; format: cell-based, mice; settings: primary hepatocytes after serum shock, 200 nM FK866 added at t=2 (FIG. 3B); vehicle 2.2 day
# Protocol: as §1, §2
# Synchronization of Primary Hepatocytes by Serum Shock. Hepatocytes were synchronized by changing to media containing 50% horse serum (t=0) for 2 hrs and then maintaining cells in media containing 0.5% FBS (A. Balsalobre, F. Damiola, U. Schibler, Cell 93, 929 (1998)). For FK866 application, 200 nM FK866 was added to the culture at t=2. RNA samples were collected at the indicated time points, and the expression of clock genes was examined by quantitative real-time PCR as described above. Damping rate was assessed as the decay rate of the oscillations of averaged Per2 RNA abundance assuming exponential decay.
# [4] = system: NAMPT-mediated NAD+ biosynthesis; settings: primary hepatocytes, 200 nM FK866 for 24 hours (FIG. 2A)
# Protocol: NAD^+Measurements. NAD^+ levels were measured using HPLC with Waters 515 pumps and a 2487 detector with a Supelco LC-18-T column (15 cm×4.6 cm). Briefly, frozen liver tissues or cultured cells were extracted in 1M perchloric acid and neutralized in 3M K2CO3 on ice. After centrifugation, the supernatant was mixed with Buffer A (50 mM K2PO4/KHPO4, pH 7.0) and loaded on to the column. The HPLC was run at a flow rate of 1 ml/min with 100% Buffer A from 0-5 min, a linear gradient to 95% Buffer N5% Buffer B (100% methanol) from 5-6 min, 95% Buffer N5% Buffer B from 6-11 min, a linear gradient to 85% Buffer N15% Buffer B from 11-13 min, 85% Buffer A/15% Buffer B from 13-23 min, and a linear gradient to 100% Buffer A from 23-24 min. NAD^+ eluted as a sharp peak at 15 min and was quantitated based on the peak area compared to a standard curve and normalized to tissue weight of frozen liver tissues or to protein content of cultured cells.
smiles,measurement,setting,value
NC(=O)C1CCCc2c1[nH]c1ccc(Cl)cc21 (stereo not drawn) [EX-527],Per2:luciferase transcription,[1]; Ex-527 0.1 and 1.0 uM (FIG. 6C),showed a similar trend
O=C(/C=C/c1cccnc1)NCCCCC1CCN(C(=O)c2ccccc2)CC1 [FK866],reduction in mRNA expression level of G6 Pase,[2],~30%
same,reduction in mRNA expression level of Pepck,[2],~30%
same,damping rate of Per2 oscillation,[3],5.3 days
same,CLOCK:BMAL1-driven transcription of the Per2:luciferase reporter,"[1]; HEK293 cells, 10 nM FK866 for 24 or 48 hours (FIG. 2C)",significant increase
same,SIRT1-dependent suppression of CLOCK:BMAL1-mediated transcription,[1]; Sirt1 (800 ng) and 10 nM FK866 for 48 hours (FIG. 2E),abrogated
same,NAD+ biosynthesis (NAD+ levels),[4],significantly inhibited
"NC(=O)c1cccnc1 [nicotinamide, 3-pyridinecarboxamide]",Per2:luciferase transcription,"[1]; increasing doses of nicotinamide 1, 5 and 10 mM (FIG. 6B)",activated
Oc1ccc(C=Cc2cc(O)cc(O)c2)cc1 [resveratrol],Per2:luciferase transcription,"[1]; increasing doses of resveratrol 20, 50 and 100 uM (FIG. 6A)",inhibited
